Test results reported in ChEMBL document CHEMBL1137149, “Bile acid conjugates of a nonsteroidal glucocorticoid receptor modulator” (Bioorg Med Chem Lett, 2004).

Assays:
Glucocorticoid receptor [1] = biological target: T1, Glucocorticoid receptor (Homo sapiens, UniProt P04150)
T1 sequence (P04150 whole entry): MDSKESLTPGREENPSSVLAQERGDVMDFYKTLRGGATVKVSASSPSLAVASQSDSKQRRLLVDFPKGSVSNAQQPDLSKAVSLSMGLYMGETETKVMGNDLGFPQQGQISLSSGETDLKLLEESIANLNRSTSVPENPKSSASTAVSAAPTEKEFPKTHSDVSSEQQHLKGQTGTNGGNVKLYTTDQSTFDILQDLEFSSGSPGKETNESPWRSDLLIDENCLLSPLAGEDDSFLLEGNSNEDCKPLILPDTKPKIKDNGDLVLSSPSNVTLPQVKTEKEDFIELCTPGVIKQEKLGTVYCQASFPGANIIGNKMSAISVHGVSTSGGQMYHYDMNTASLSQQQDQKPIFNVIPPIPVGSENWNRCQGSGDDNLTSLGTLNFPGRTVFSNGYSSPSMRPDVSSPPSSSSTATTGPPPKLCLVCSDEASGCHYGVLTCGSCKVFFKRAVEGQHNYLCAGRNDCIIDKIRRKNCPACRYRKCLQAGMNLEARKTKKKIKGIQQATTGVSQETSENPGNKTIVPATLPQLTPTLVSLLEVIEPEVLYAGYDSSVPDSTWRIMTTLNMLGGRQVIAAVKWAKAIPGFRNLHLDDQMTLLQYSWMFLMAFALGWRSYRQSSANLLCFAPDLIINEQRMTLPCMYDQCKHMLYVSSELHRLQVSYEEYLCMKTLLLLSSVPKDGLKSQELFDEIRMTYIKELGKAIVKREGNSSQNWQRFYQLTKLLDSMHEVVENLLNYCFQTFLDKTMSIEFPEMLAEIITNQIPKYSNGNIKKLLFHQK

Glucocorticoid receptor [2] = biological target: T1, Glucocorticoid receptor; assay type: functional
Description: Inhibition of glucocorticoid receptor Dexamethasone response in reporter gene assay

Glucocorticoid receptor [3] = biological target: T2, Glucocorticoid receptor (Rattus norvegicus, UniProt P06536); assay type: functional, cell-based; conditions: hepatocyte
T2 sequence (P06536 whole entry): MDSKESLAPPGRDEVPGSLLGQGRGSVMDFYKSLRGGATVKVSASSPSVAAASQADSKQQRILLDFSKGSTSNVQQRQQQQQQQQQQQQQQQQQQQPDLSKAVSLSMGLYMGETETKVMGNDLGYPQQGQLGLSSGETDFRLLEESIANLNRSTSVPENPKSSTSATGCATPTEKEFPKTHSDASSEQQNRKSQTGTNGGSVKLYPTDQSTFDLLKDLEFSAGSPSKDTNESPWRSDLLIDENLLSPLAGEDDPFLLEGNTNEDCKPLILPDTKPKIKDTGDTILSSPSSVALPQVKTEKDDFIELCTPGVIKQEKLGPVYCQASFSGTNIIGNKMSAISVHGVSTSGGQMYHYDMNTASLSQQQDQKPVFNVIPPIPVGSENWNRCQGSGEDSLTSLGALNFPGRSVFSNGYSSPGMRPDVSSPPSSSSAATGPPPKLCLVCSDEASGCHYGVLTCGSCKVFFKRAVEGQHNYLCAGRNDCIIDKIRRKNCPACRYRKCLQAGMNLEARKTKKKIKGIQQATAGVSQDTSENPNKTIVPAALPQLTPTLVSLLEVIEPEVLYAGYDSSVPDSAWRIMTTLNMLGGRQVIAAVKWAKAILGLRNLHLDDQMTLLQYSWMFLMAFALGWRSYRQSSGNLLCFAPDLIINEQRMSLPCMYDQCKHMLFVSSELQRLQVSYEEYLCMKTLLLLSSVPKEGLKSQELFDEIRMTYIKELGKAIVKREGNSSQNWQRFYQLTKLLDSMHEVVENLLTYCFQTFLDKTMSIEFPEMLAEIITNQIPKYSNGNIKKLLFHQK

[4] = biological target: T3, Hepatic sodium/bile acid cotransporter (Rattus norvegicus, UniProt P26435)
T3 sequence (P26435 whole entry): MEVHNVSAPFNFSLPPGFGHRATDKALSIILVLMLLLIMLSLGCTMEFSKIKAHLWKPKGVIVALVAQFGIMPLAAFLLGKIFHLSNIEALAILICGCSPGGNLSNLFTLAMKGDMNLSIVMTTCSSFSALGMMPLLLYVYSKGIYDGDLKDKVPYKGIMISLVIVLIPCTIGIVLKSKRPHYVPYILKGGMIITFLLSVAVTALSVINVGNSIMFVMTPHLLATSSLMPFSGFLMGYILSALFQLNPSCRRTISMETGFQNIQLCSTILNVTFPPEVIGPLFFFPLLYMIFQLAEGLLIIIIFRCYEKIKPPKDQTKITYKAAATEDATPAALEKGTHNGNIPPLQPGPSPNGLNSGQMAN

Compound	IC50 (Glucocorticoid receptor [1]) [nM]	IC50 (Glucocorticoid receptor [2]) [nM]	IC50 (Glucocorticoid receptor [3])	IC50 [4] [nM]
Cc1c(NS(C)(=O)=O)cccc1N(Cc1ccccc1)Cc1ccc(CCC(=O)NCCO[C@H]2CC[C@@]3(C)[C@@H](C2)C[C@@H](O)[C@@H]2[C@@H]3C[C@H](O)[C@]3(C)[C@@H]([C@H](C)CCC(=O)O)CC[C@@H]23)cc1	560	310		
Cc1c(NS(C)(=O)=O)cccc1N(Cc1ccccc1)Cc1ccc(Oc2cccc(OCC(=O)NCCO[C@H]3CC[C@@]4(C)[C@@H](C3)C[C@@H](O)[C@@H]3[C@@H]4C[C@H](O)[C@]4(C)[C@@H]([C@H](C)CCC(=O)O)CC[C@@H]34)c2)cc1	57	590		
Cc1c(NS(C)(=O)=O)cccc1N(Cc1ccccc1)Cc1ccc(Oc2cccc(CCCC(=O)NCCO[C@@H]3CC[C@]4(C)[C@H](C3)C[C@H](O)[C@@H]3[C@@H]4C[C@@H](O)[C@]4(C)[C@H]3CC[C@H]4[C@@H](C)CCC(=O)O)c2)cc1	62	390		

The remaining lines, values ahead:

IC50 (Glucocorticoid receptor [1]) [nM]	IC50 (Glucocorticoid receptor [2]) [nM]	IC50 (Glucocorticoid receptor [3])	IC50 [4] [nM]	Compound
93				Cc1c(NS(C)(=O)=O)cccc1N(Cc1ccc(Oc2ccccc2)cc1)Cc1cccc(CCCC(=O)NCCO[C@H]2CC[C@@]3(C)[C@@H](C2)C[C@@H](O)[C@@H]2[C@@H]3C[C@H](O)[C@]3(C)[C@@H]([C@H](C)CCC(=O)O)CC[C@@H]23)c1
50				Cc1c(NS(C)(=O)=O)cccc1N(Cc1ccccc1)Cc1ccc(Oc2ccc(CCCC(=O)NCCO[C@H]3CC[C@@]4(C)[C@@H](C3)C[C@@H](O)[C@@H]3[C@@H]4C[C@H](O)[C@]4(C)[C@@H]([C@H](C)CCC(=O)O)CC[C@@H]34)cc2)cc1
17	450	Not Active	4	Cc1c(NS(C)(=O)=O)cccc1N(Cc1ccccc1)Cc1ccc(Oc2ccc(CCC(=O)NCCO[C@@H]3CC[C@]4(C)[C@H](C3)C[C@H](O)[C@@H]3[C@@H]4C[C@@H](O)[C@]4(C)[C@H]3CC[C@H]4[C@@H](C)CCC(=O)O)cc2)cc1
270				Cc1c(NS(C)(=O)=O)cccc1N(Cc1ccc(Oc2ccc(CCC(=O)NCCO[C@@H]3CC[C@]4(C)[C@H](C3)C[C@H](O)[C@@H]3[C@@H]4C[C@@H](O)[C@]4(C)[C@H]3CC[C@H]4[C@@H](C)CCC(=O)O)cc2)cc1)Cc1ccc(F)cc1F
260				Cc1c(NS(C)(=O)=O)cccc1N(Cc1ccc(CCCC(=O)NCCO[C@@H]2CC[C@]3(C)[C@H](C2)C[C@H](O)[C@@H]2[C@@H]3C[C@@H](O)[C@]3(C)[C@H]2CC[C@H]3[C@@H](C)CCC(=O)O)cc1)Cc1ccc(Oc2ccccc2)cc1
